Organism: Rattus norvegicus
Test: Open TG-GATES - Regimen: Single
Format: toxicity, organism-based, Sprague-Dawley
Design: regimen Single, gender Male, age 6 weeks
Details: in vivo, po, route gavage; for APTT / Bas / Eos / Fbg / Hb / Ht / Lym / MCH / MCHC / MCV / Mono / Neu / PT / Plat / RBC / Ret / WBC: tissue Blood; for KIDNEY_L / KIDNEY_R / KIDNEY_TOTAL: tissue Kidney; for LIVER: tissue Liver; for A/G / ALP / ALT / AST / BUN / CRE / Ca / Cl / DBIL / GLC / IP / K / LDH / Na / PL / RALB / TBIL / TC / TG / TP / gamma-GTP: tissue Plasma
[1] = 0 mg/kg, 3 h, dose level Control
[2] = 0 mg/kg, 6 h, dose level Control
[3] = 0 mg/kg, 9 h, dose level Control
[4] = 0 mg/kg, 24 h, dose level Control
[5] = 100 mg/kg, 24 h, dose level Low

## CNC(=C[N+](=O)[O-])NCCSCc1ccc(CN(C)C)o1 [RANITIDINE]
[1]
  TERMINAL_BW: 216.9 g
  APTT: 20.3 s
  Bas: 0%
  Eos: 0.4%
  Fbg: 215 mg/dL
  Hb: 13.7 g/dL
  Ht: 39.6%
  Lym: 83.4%
  MCH: 21.8 pg
  MCHC: 34.7%
  MCV: 62.8 fL
  Mono: 2.6%
  Neu: 10.2%
  PT: 12.4 s
  Plat: 114.3 x10_4/uL
  RBC: 632.2 x10_4/ul
  Ret: 6.8%
  WBC: 87.5 x10_2/uL
  KIDNEY_L: 1 g
  KIDNEY_R: 1 g
  KIDNEY_TOTAL: 1.9 g
  LIVER: 9.7 g
  A/G: 1.6
  ALP: 1059 IU/L
  ALT: 36.4 IU/L
  AST: 70.2 IU/L
  BUN: 10.8 mg/dL
  CRE: 0.4 mg/dL
  Ca: 10.8 mg/dL
  Cl: 103 meq/L
  DBIL: 0.068 mg/dL
  GLC: 188.2 mg/dL
  IP: 8.4 mg/dL
  K: 3.8 meq/L
  LDH: 130.4 IU/L
  Na: 140.8 meq/L
  PL: 136.8 mg/dL
  RALB: 3.3 g/dL
  TBIL: 0.1 mg/dL
  TC: 75.2 mg/dL
  TG: 50.8 mg/dL
  TP: 5.3 g/dL
  gamma-GTP: 1 IU/L
[2]
  TERMINAL_BW: 213.6 g
  APTT: 19.4 s
  Bas: 0%
  Eos: 1%
  Fbg: 238.2 mg/dL
  Hb: 13.6 g/dL
  Ht: 38.7%
  Lym: 79%
  MCH: 22.3 pg
  MCHC: 35%
  MCV: 63.7 fL
  Mono: 2.6%
  Neu: 15.8%
  PT: 12.2 s
  Plat: 123.3 x10_4/uL
  RBC: 608.8 x10_4/ul
  Ret: 7.6%
  WBC: 97.4 x10_2/uL
  KIDNEY_L: 0.9 g
  KIDNEY_R: 0.9 g
  KIDNEY_TOTAL: 1.9 g
  LIVER: 9.5 g
  A/G: 1.7
  ALP: 839.8 IU/L
  ALT: 35.2 IU/L
  AST: 64.6 IU/L
  BUN: 10.2 mg/dL
  CRE: 0.4 mg/dL
  Ca: 10.7 mg/dL
  Cl: 102.8 meq/L
  DBIL: 0.066 mg/dL
  GLC: 195.2 mg/dL
  IP: 8.6 mg/dL
  K: 3.9 meq/L
  LDH: 111 IU/L
  Na: 140.2 meq/L
  PL: 146 mg/dL
  RALB: 3.4 g/dL
  TBIL: 0.1 mg/dL
  TC: 84.2 mg/dL
  TG: 55.4 mg/dL
  TP: 5.4 g/dL
  gamma-GTP: 1 IU/L
[3]
  TERMINAL_BW: 211.2 g
  APTT: 20.2 s
  Bas: 0%
  Eos: 1%
  Fbg: 230 mg/dL
  Hb: 13.6 g/dL
  Ht: 39.1%
  Lym: 81%
  MCH: 21.7 pg
  MCHC: 34.8%
  MCV: 62.4 fL
  Mono: 2%
  Neu: 14.2%
  PT: 12.3 s
  Plat: 120.9 x10_4/uL
  RBC: 627.6 x10_4/ul
  Ret: 7%
  WBC: 71.4 x10_2/uL
  KIDNEY_L: 1 g
  KIDNEY_R: 1 g
  KIDNEY_TOTAL: 1.9 g
  LIVER: 8.8 g
  A/G: 1.6
  ALP: 783.8 IU/L
  ALT: 29.8 IU/L
  AST: 62.8 IU/L
  BUN: 10 mg/dL
  CRE: 0.4 mg/dL
  Ca: 10.5 mg/dL
  Cl: 103.2 meq/L
  DBIL: 0.066 mg/dL
  GLC: 210.8 mg/dL
  IP: 8.5 mg/dL
  K: 3.9 meq/L
  LDH: 122.8 IU/L
  Na: 141.2 meq/L
  PL: 134 mg/dL
  RALB: 3.4 g/dL
  TBIL: 0.1 mg/dL
  TC: 76.8 mg/dL
  TG: 28.8 mg/dL
  TP: 5.5 g/dL
  gamma-GTP: 1.2 IU/L
[4]
  TERMINAL_BW: 228.8 g
  APTT: 21.3 s
  Bas: 0.2%
  Eos: 1%
  Fbg: 227.4 mg/dL
  Hb: 13.7 g/dL
  Ht: 39.1%
  Lym: 83.6%
  MCH: 22.5 pg
  MCHC: 35.2%
  MCV: 63.9 fL
  Mono: 2.2%
  Neu: 11.8%
  PT: 11.9 s
  Plat: 130.4 x10_4/uL
  RBC: 611.2 x10_4/ul
  Ret: 6.6%
  WBC: 112 x10_2/uL
  KIDNEY_L: 1 g
  KIDNEY_R: 1 g
  KIDNEY_TOTAL: 2.1 g
  LIVER: 10.9 g
  A/G: 1.6
  ALP: 872.4 IU/L
  ALT: 38.8 IU/L
  AST: 62.6 IU/L
  BUN: 16 mg/dL
  CRE: 0.4 mg/dL
  Ca: 10.8 mg/dL
  Cl: 102.4 meq/L
  DBIL: 0.094 mg/dL
  GLC: 190.2 mg/dL
  IP: 7.7 mg/dL
  K: 4.1 meq/L
  LDH: 121 IU/L
  Na: 140.6 meq/L
  PL: 148.8 mg/dL
  RALB: 3.5 g/dL
  TBIL: 0.1 mg/dL
  TC: 77.2 mg/dL
  TG: 78.6 mg/dL
  TP: 5.7 g/dL
  gamma-GTP: 1 IU/L
100 mg/kg, 3 h, dose level Low
  TERMINAL_BW: 216.8 g
  APTT: 19.1 s
  Bas: 0%
  Eos: 1%
  Fbg: 225.4 mg/dL
  Hb: 13.7 g/dL
  Ht: 39.7%
  Lym: 76.8%
  MCH: 22.3 pg
  MCHC: 34.5%
  MCV: 64.5 fL
  Mono: 2.8%
  Neu: 15.2%
  PT: 12.1 s
  Plat: 118 x10_4/uL
  RBC: 616 x10_4/ul
  Ret: 7.4%
  WBC: 87.6 x10_2/uL
  KIDNEY_L: 1 g
  KIDNEY_R: 1 g
  KIDNEY_TOTAL: 2 g
  LIVER: 10.3 g
  A/G: 1.6
  ALP: 1082.6 IU/L
  ALT: 38.2 IU/L
  AST: 66.6 IU/L
  BUN: 11.4 mg/dL
  CRE: 0.4 mg/dL
  Ca: 10.7 mg/dL
  Cl: 103.8 meq/L
  DBIL: 0.078 mg/dL
  GLC: 190.6 mg/dL
  IP: 8.7 mg/dL
  K: 3.7 meq/L
  LDH: 153 IU/L
  Na: 141 meq/L
  PL: 137.8 mg/dL
  RALB: 3.4 g/dL
  TBIL: 0.1 mg/dL
  TC: 73.2 mg/dL
  TG: 57.4 mg/dL
  TP: 5.6 g/dL
  gamma-GTP: 1.2 IU/L
100 mg/kg, 6 h, dose level Low
  TERMINAL_BW: 216.3 g
  APTT: 17.7 s
  Bas: 0%
  Eos: 0.6%
  Fbg: 229.6 mg/dL
  Hb: 12.9 g/dL
  Ht: 37.1%
  Lym: 73.2%
  MCH: 22 pg
  MCHC: 34.8%
  MCV: 63.2 fL
  Mono: 2.2%
  Neu: 19.6%
  PT: 12.3 s
  Plat: 118.8 x10_4/uL
  RBC: 588 x10_4/ul
  Ret: 7.3%
  WBC: 96.3 x10_2/uL
  KIDNEY_L: 1 g
  KIDNEY_R: 1 g
  KIDNEY_TOTAL: 2 g
  LIVER: 9.3 g
  A/G: 1.7
  ALP: 929.4 IU/L
  ALT: 34 IU/L
  AST: 66.4 IU/L
  BUN: 9.6 mg/dL
  CRE: 0.4 mg/dL
  Ca: 10.5 mg/dL
  Cl: 103.4 meq/L
  DBIL: 0.074 mg/dL
  GLC: 198 mg/dL
  IP: 8.6 mg/dL
  K: 3.8 meq/L
  LDH: 168.8 IU/L
  Na: 140.4 meq/L
  PL: 134.2 mg/dL
  RALB: 3.4 g/dL
  TBIL: 0.1 mg/dL
  TC: 73 mg/dL
  TG: 52.8 mg/dL
  TP: 5.4 g/dL
  gamma-GTP: 1.4 IU/L
100 mg/kg, 9 h, dose level Low
  TERMINAL_BW: 213.4 g
  APTT: 19.1 s
  Bas: 0%
  Eos: 1%
  Fbg: 217.2 mg/dL
  Hb: 13.2 g/dL
  Ht: 37.7%
  Lym: 72%
  MCH: 22.1 pg
  MCHC: 34.9%
  MCV: 63.3 fL
  Mono: 2.6%
  Neu: 21.8%
  PT: 12.6 s
  Plat: 116.5 x10_4/uL
  RBC: 596.2 x10_4/ul
  Ret: 7.2%
  WBC: 81.2 x10_2/uL
  KIDNEY_L: 1 g
  KIDNEY_R: 1 g
  KIDNEY_TOTAL: 1.9 g
  LIVER: 8.4 g
  A/G: 1.6
  ALP: 835.8 IU/L
  ALT: 32.2 IU/L
  AST: 68 IU/L
  BUN: 10 mg/dL
  CRE: 0.3 mg/dL
  Ca: 10.3 mg/dL
  Cl: 103.4 meq/L
  DBIL: 0.062 mg/dL
  GLC: 194.2 mg/dL
  IP: 8.4 mg/dL
  K: 3.6 meq/L
  LDH: 144.4 IU/L
  Na: 140.4 meq/L
  PL: 132.6 mg/dL
  RALB: 3.3 g/dL
  TBIL: 0.1 mg/dL
  TC: 78.6 mg/dL
  TG: 22.2 mg/dL
  TP: 5.3 g/dL
  gamma-GTP: 1.4 IU/L
[5]
  TERMINAL_BW: 226.3 g
  APTT: 19.4 s
  Bas: 0%
  Eos: 1%
  Fbg: 227 mg/dL
  Hb: 13.9 g/dL
  Ht: 39.7%
  Lym: 79.2%
  MCH: 22.7 pg
  MCHC: 35.2%
  MCV: 64.4 fL
  Mono: 2.4%
  Neu: 15.2%
  PT: 12 s
  Plat: 116.2 x10_4/uL
  RBC: 617.2 x10_4/ul
  Ret: 6.5%
  WBC: 100.7 x10_2/uL
  KIDNEY_L: 1 g
  KIDNEY_R: 1 g
  KIDNEY_TOTAL: 2 g
  LIVER: 10.7 g
  A/G: 1.5
  ALP: 931.8 IU/L
  ALT: 33.8 IU/L
  AST: 65.6 IU/L
  BUN: 14.4 mg/dL
  CRE: 0.4 mg/dL
  Ca: 10.8 mg/dL
  Cl: 102.2 meq/L
  DBIL: 0.086 mg/dL
  GLC: 196.6 mg/dL
  IP: 7.6 mg/dL
  K: 4 meq/L
  LDH: 147.8 IU/L
  Na: 140.2 meq/L
  PL: 142.8 mg/dL
  RALB: 3.3 g/dL
  TBIL: 0.1 mg/dL
  TC: 70.8 mg/dL
  TG: 90 mg/dL
  TP: 5.5 g/dL
  gamma-GTP: 1 IU/L
